Here are results for 70 compounds from ChEMBL document CHEMBL1126835, “QSAR's from similarity matrices. Technique validation and application in the comparison of different similarity evaluation methods” (J Med Chem, 1993).

One series has as its target T1, Monoamine oxidase (Homo sapiens, UniProt P21397+P27338).
T1 sequence (P21397 whole entry): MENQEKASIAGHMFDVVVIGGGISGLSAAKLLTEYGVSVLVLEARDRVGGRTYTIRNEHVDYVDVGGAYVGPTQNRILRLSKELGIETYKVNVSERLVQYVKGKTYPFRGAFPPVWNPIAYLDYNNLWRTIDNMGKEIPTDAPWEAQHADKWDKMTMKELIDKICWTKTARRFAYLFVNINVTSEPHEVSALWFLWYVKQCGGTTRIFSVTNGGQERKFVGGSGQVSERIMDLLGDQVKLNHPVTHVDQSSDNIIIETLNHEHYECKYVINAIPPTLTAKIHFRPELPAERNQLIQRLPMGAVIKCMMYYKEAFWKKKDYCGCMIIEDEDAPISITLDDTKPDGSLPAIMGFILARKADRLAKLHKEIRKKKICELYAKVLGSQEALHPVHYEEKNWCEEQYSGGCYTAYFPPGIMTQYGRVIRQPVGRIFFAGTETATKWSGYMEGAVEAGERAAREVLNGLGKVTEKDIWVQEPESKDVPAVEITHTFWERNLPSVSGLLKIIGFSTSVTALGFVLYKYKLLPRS
T1 sequence (P27338 whole entry): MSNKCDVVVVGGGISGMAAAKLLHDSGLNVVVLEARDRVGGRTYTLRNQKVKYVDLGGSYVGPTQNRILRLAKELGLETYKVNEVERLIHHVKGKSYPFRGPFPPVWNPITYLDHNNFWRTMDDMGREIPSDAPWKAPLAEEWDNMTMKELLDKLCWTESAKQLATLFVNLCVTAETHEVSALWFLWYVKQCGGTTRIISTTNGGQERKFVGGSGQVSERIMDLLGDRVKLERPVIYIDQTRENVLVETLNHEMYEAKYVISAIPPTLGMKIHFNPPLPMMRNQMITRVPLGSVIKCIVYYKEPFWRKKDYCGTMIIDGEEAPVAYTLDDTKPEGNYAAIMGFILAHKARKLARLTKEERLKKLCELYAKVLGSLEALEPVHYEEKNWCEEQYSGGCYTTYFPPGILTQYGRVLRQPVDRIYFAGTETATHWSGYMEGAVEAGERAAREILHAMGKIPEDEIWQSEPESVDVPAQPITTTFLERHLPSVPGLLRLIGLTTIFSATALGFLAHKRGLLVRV
The series can be described thus: Binding affinity towards monoaminooxidase Relative to MPTP. It counts as protein assay.

Series [1] is described as follows: Dissociation constant (pKa). The class given is physicochemical.
The target of series [2] is T2, Sex hormone-binding globulin (Homo sapiens) (UniProt P04278).
T2 sequence (whole entry): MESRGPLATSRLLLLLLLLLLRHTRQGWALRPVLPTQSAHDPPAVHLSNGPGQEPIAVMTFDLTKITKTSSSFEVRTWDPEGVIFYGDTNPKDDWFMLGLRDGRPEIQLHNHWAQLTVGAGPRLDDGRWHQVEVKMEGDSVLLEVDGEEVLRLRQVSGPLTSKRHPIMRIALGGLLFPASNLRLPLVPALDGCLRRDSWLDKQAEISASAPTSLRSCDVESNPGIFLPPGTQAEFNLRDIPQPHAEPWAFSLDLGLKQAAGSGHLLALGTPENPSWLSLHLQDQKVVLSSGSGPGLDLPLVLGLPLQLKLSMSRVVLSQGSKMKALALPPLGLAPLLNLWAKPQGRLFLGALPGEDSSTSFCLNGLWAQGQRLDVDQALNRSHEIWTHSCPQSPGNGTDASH
Description: Binding affinity towards human testosterone binding globulin.

Series [3] deals with T3, Corticosteroid-binding globulin (Homo sapiens) (UniProt P08185).
T3 sequence (whole entry): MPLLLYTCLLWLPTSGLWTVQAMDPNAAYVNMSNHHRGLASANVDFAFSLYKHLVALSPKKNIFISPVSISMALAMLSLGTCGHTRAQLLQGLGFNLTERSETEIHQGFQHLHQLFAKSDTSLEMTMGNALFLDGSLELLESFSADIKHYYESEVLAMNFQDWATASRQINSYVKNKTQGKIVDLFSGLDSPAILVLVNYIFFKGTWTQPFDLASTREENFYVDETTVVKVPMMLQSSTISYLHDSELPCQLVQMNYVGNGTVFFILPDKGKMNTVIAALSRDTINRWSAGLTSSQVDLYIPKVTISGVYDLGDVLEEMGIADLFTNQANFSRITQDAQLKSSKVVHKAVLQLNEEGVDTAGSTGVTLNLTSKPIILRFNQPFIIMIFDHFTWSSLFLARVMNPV
Description: Binding affinity towards human corticosteroid binding globulin.

As to `C1=C(c2ccccc2)CCNC1`, on Monoamine oxidase, the Relative activity came to 3.
At Monoamine oxidase, `CN1CC=C(c2ccc(Cl)cc2)CC1` came in with a Relative activity of 2.
`CSC1NC=CN1`: the pKa in series [1] worked out at 5.95.
In turn, `C1=CNC(c2ccncc2)N1` showed a pKa in series [1] of 5.36.
Turning to `CCC1NC=CN1`, the pKa in series [1] was found to be 7.73.
In turn, `OCCN1CC=C(c2ccccc2)CC1` came in with a Relative activity at Monoamine oxidase of 2.
Same read-out and setting: the value for `CC1CN(C)CC=C1c1ccccc1` (stereo not given) was 2.
On the same count and under the same terms, as for `CN1CC=C(c2ccccc2Cl)CC1`, the figure is 3.
On Monoamine oxidase, `CN1CC=C(Cc2ccccc2)CC1` registered a Relative activity of 3.
Take `N#CCCC(=O)N1CC=C(c2ccccc2)CC1`: the Relative activity on Monoamine oxidase is 1.
For `CN1C=CNC1Br` (stereo not given), the pKa in series [1] was 3.82.
With `O=[N+]([O-])C1NC=CN1`, the pKa in series [1] was -0.81.
`CN1CC=C(c2cccc(F)c2)CC1` yielded a Relative activity on Monoamine oxidase of 3.
Same read-out and setting: as for `C1=C(c2ccccc2)CCN(Cc2ccccc2)C1`, the figure is 1.
Consider `C[C@]12CC[C@H]3[C@@H](CCC4=CC(=O)CC[C@@]43C)[C@@H]1CC[C@@H]2C(=O)CO`, for which the Log 1/K is -7.38 in series [2] and -7.65 in series [3].
`CN1CC=C(c2cccn2C)CC1`: the Relative activity on Monoamine oxidase is reported as 3.
Take `CN1CC=C(c2ccccc2)CC1`: the Relative activity on Monoamine oxidase turned out to be 3.
The compound `BrC1NC=CN1` yielded a pKa in series [1] of 3.79.
Consider `C[C@]12CCC(=O)C=C1CCC1C3CC[C@H](C(=O)CO)[C@@]34C[C@H](OC4O)C12` (stereo not given in full), for which the values for the Log 1/K in series [2] and in series [3] were -5.32 and -6.28, respectively.
In turn, `CCc1ccccc1C1=CCN(C)CC1` returned a Relative activity on Monoamine oxidase of 3.
Turning to `CCCCc1cc2c(cn1)[nH]c1ccccc12`, the Log 1/K was -9.11 in series [2] and -5 in series [3].
As for `C[C@]12CCC(=O)C=C1CC[C@@H]1[C@@H]2CC[C@]2(C)C(=O)CC[C@@H]12`, the Log 1/K in series [2] was -7.46; in series [3], -5.76.
Taken in the same sequence, the figures for `CC(=O)[C@H]1CC[C@H]2[C@@H]3CCC4=CC(=O)CC[C@]4(C)[C@H]3CC[C@]12C` were -6.94 and -7.38.
In the case of `CC(=O)[C@@]1(O)CC[C@H]2[C@@H]3CCC4=CC(=O)CC[C@]4(C)[C@H]3CC[C@@]21C`, the values for the Log 1/K in series [2] and in series [3] were -7 and -7.74, respectively.
Compound `COc1cccc(C2=CCN(C)CC2)c1` returned a Relative activity on Monoamine oxidase of 2.
The same measure, in the same setting: the value for `Cc1ccc(C2=CCN(C)CC2)cc1` was 2.
The compound `CC1NC=CN1` came in with a pKa in series [1] of 7.86.
As for `C[C@]12CCC(=O)C=C1CC[C@@H]1[C@@H]2CC[C@@]2(C)[C@H]1CC[C@]2(O)C(=O)CO`, the Log 1/K was -7.2 in series [2] and -7.88 in series [3].
On Monoamine oxidase, `CN1CC=C(c2ccccc2C(F)(F)F)CC1` registered a Relative activity of 3.
The same measure, in the same setting: the value for `CN1CC=C(c2ccc(F)cc2)CC1` was 2; that for `Clc1ccc(C2=CCNCC2)cc1` was 2.
On to `CN1CC=C(C(C)(C)C)CC1`, for which the Relative activity at Monoamine oxidase is 2.
For `C[C@]12CCC3C4=C(CCC3C1CCC2=O)CC(=O)C=C4` (stereo not given in full), the Log 1/K in series [2] was -8.18; in series [3], -5.
On Monoamine oxidase, `CCN1CC=C(c2ccccc2)CC1` gave a Relative activity of 2.
On to `FC1NC=CN1`, for which the pKa in series [1] was 2.4.
`CC(C)N1CC=C(c2ccccc2)CC1` registered a Relative activity at Monoamine oxidase of 1.
Same read-out and setting: the value for `C/C(=C\CN(C)C)c1ccccc1` was 3; that for `CN1CC=C(c2cccs2)CC1` was 2.
Turning to `C[C@]12CC[C@H](O)CC1=CC[C@@H]1[C@@H]2CC[C@]2(C)C(=O)CC[C@@H]12`, the Log 1/K in series [2] is -7.82; in series [3], -5.
In turn, `CN1C=CNC1F` (stereo not given) returned a pKa in series [1] of 2.3.
For `C[C@]12CCC(=O)C=C1CC[C@@H]1[C@@H]2[C@@H](O)C[C@@]2(C)[C@H]1CC[C@]2(O)C(=O)CO`, the Log 1/K is -6.2 in series [2] and -7.88 in series [3].
Compound `Fc1ccc(C2=CCNCC2)cc1` displayed a Relative activity at Monoamine oxidase of 2.
Same read-out and setting: the value for `COc1ccccc1C1=CCN(C)CC1` was 3; that for `Cc1cccc(C)c1C1=CCN(C)CC1` was 3; that for `C1=C(c2ccccc2)CCN(CC2CC2)C1` was 1.
On the same count and under the same terms, as for `CC1=C(c2ccccc2)CCN(C)C1`, the figure is 2.
Take `CN1C=CNC1N` (stereo not given): the pKa in series [1] worked out at 8.54.
For the compound `C[C@]12CC[C@@H](O)C[C@H]1CC[C@@H]1[C@@H]2CC[C@]2(C)C(=O)CC[C@@H]12`, the results for the Log 1/K in series [2] and in series [3] were -6.15 and -5.22, respectively.
At Monoamine oxidase, `CCCCN1CC=C(c2ccccc2)CC1` came in with a Relative activity of 1.
For `CC(=O)[C@H]1CC[C@H]2[C@@H]3CC=C4C[C@@H](O)CC[C@]4(C)[C@H]3CC[C@]12C`, the values for the Log 1/K in series [2] and in series [3] were -7.15 and -5.22, respectively.
At Monoamine oxidase, `CCCN1CC=C(c2ccccc2)CC1` came in with a Relative activity of 1.
For `Cc1cccc(C2=CCN(C)CC2)c1`, at Monoamine oxidase, the Relative activity worked out at 3.
In the case of `CN1CC=C(C2CCCCC2)CC1`, the Relative activity on Monoamine oxidase was found to be 3.
For the compound `CN1CC=C(c2cccc(Br)c2)CC1`, the Relative activity at Monoamine oxidase was 3.
In the case of `CN1CC=C(c2cccc(Cl)c2)CC1`, on Monoamine oxidase, the Relative activity is 3.
On the same count and under the same terms, as for `Cc1ccccc1C1=CCN(C)CC1`, the figure is 3; as for `CCN1CC=CCC1`, 2.
`C1=CNC(c2ccccc2)N1`: the pKa in series [1] came out at 6.48.
`CCC1=CCN(C)CC1` displayed a Relative activity on Monoamine oxidase of 2.
Still for that read-out and setting: as for `C=CCN1CC=C(c2ccccc2)CC1`, the figure is 1.
For `NC1NC=CN1`, in series [1], the pKa came to 8.46.
In series [1], `C1=CNCN1` registered a pKa of 6.99.
With `C[C@]12CCC(=O)C=C1CC[C@@H]1[C@@H]2C(=O)C[C@@]2(C)[C@H]1CC[C@]2(O)C(=O)CO`, the Log 1/K in series [2] was -6.43; in series [3] it was -6.89.
Taken in the same sequence, the figures for `CC(=O)[C@@]1(O)CC[C@H]2[C@@H]3CC=C4C[C@@H](O)CC[C@]4(C)[C@H]3CC[C@@]21C` were -6.36 and -5.
Compound `CN1CCc2c([nH]c3ccccc23)C1` gave a Relative activity on Monoamine oxidase of 2.
Same read-out and setting: the value for `CN1CCC(c2ccccc2)CC1` was 1.
`C[C@]12C[C@H](O)[C@H]3[C@@H](CCC4=CC(=O)CC[C@@]43C)[C@@H]1CC[C@@H]2C(=O)CO`: the Log 1/K is -6.34 in series [2] and -7.88 in series [3].
Regarding `ClC1NC=CN1`, the pKa in series [1] stood at 3.55.
Take `CN1C=CNC1`: in series [1], the pKa stood at 7.12.
Compound `CN1CC=C(c2ccccc2F)CC1` yielded a Relative activity on Monoamine oxidase of 3.
